Data reported in patent US10584115B2, “Substituted pyridine and pyrazine BMI-1 inhibitors” (PTC Therapeutics, Inc., priority 2013, dated 2020).
pEC50: −log10 of the molar value. Like-named read-outs stand apart in the source and are kept apart here.

Experiments:
[1] = system: Bmi-1 protein; assay: Sandwich ELISA Assay (Bmi-1 protein level in HT-1080 cells after compound treatment); format: cell-based
In short: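 Sandwich ELISA quantified Bmi-1 protein against recombinant standard (125–8000 pg/mL), with lysates captured overnight at 4 °C and signal by HRP/TMB at 450 nm (570 nm reference). Lysates came from HT-1080 cells incubated 40–48 h with test compounds in 0.5% DMSO.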

[2] = Table 1, Bmi-1 sandwich ELISA, read-out: ELISA EC50 value for Bmi-1 protein

| melting point | pEC50 [1, 2] | SMILES | pEC50 ([1]; read-out: ELISA EC50 value for Bmi-1 protein, Table 1, Bmi-1 sandwich ELISA) |
| --- | --- | --- | --- |
| 208 to 210 °C | 5.52 to 7.00 | Cc1nc2ccc(F)cn2c1-c1cncc(Nc2ccc(F)cc2)n1 [compound 591, 6-(6-fluoro-2-methylimidazo[1,2-a]pyridin-3-yl)-N-(4-fluorophenyl)pyrazin-2-amine] | – |
| 215 to 218 °C | 8.00 to 9.00 | Cc1nc2ccc(F)cn2c1-c1cncc(Nc2ccc(Cl)cc2)n1 [compound 593, N-(4-chlorophenyl)-6-(6-fluoro-2-methylimidazo[1,2-a]pyridin-3-yl)pyrazin-2-amine] | – |
| 188 to 190 °C | 5.52 to 7.00 | Cc1nc2ccc(F)cn2c1-c1cncc(Nc2cccc(C(F)(F)F)c2)n1 [compound 594, 6-(6-fluoro-2-methylimidazo[1,2-a]pyridin-3-yl)-N-[3-(trifluoromethyl)phenyl]pyrazin-2-amine] | – |
| 270 to 273 °C | 7.00 to 8.00 | Cc1nc2ccc(F)cn2c1-c1cncc(Nc2cccc(F)c2)n1 [compound 595, 6-(6-fluoro-2-methylimidazo[1,2-a]pyridin-3-yl)-N-(3-fluorophenyl)pyrazin-2-amine] | – |
| 270 to 273 °C | 8.00 to 9.00 | COc1cccc(Nc2cncc(-c3c(C)nc4ccc(F)cn34)n2)c1 [compound 596, 6-(6-fluoro-2-methylimidazo[1,2-a]pyridin-3-yl)-N-(3-methoxyphenyl)pyrazin-2-amine] | – |
| 272 to 275 °C | 7.00 to 8.00 | Cc1nc2ccc(F)cn2c1-c1cncc(Nc2cccc(Cl)c2)n1 [compound 597, N-(3-chlorophenyl)-6-(6-fluoro-2-methylimidazo[1,2-a]pyridin-3-yl)pyrazin-2-amine] | – |
| 218 to 220 °C | 5.52 to 7.00 | Cc1nc2ccc(F)cn2c1-c1cncc(Nc2ccccc2F)n1 [compound 598, 6-(6-fluoro-2-methylimidazo[1,2-a]pyridin-3-yl)-N-(2-fluorophenyl)pyrazin-2-amine] | – |
| 218 to 220 °C | > 9.00 | CCc1nc2ccc(F)cc2n1-c1cncc(Nc2ccc(OC)cc2)n1 [compound 621, 6-(2-ethyl-6-fluoro-1H-benzimidazol-1-yl)-N-(4-methoxyphenyl)pyrazin-2-amine] | – |
| 223 to 226 °C | 8.00 to 9.00 | CCc1nc2ccc(F)cc2n1-c1cncc(Nc2ccc(C)cc2)n1 [compound 622, 6-(2-ethyl-6-fluoro-1H-benzimidazol-1-yl)-N-(4-methylphenyl)pyrazin-2-amine] | – |
| 252 to 255 °C | 8.00 to 9.00 | CCc1nc2ccc(F)cc2n1-c1cncc(Nc2ccc(Cl)cc2)n1 [compound 623, N-(4-chlorophenyl)-6-(2-ethyl-6-fluoro-1H-benzimidazol-1-yl)pyrazin-2-amine] | – |
| 179 to 181 °C | 7.00 to 8.00 | CCc1nc2ccc(F)cc2n1-c1cncc(Nc2cccc(OC)c2)n1 [compound 624, 6-(2-ethyl-6-fluoro-1H-benzimidazol-1-yl)-N-(3-methoxyphenyl)pyrazin-2-amine] | – |
| 192 to 195 °C | 5.52 to 7.00 | CCc1nc2ccc(F)cc2n1-c1cncc(Nc2cccc(Cl)c2)n1 [compound 625, N-(3-chlorophenyl)-6-(2-ethyl-6-fluoro-1H-benzimidazol-1-yl)pyrazin-2-amine] | – |
| 228 to 230 °C | 5.52 to 7.00 | CCc1nc2ccc(F)cc2n1-c1cncc(Nc2cccc(F)c2)n1 [compound 626, 6-(2-ethyl-6-fluoro-1H-benzimidazol-1-yl)-N-(3-fluorophenyl)pyrazin-2-amine] | – |
| 186 to 188 °C | 8.00 to 9.00 | Cc1ccc(Nc2cncc(-c3c(C)noc3C)n2)cc1 [compound 635, 6-(3,5-dimethyl-1,2-oxazol-4-yl)-N-(4-methylphenyl)pyrazin-2-amine] | – |
| 154 to 155 °C | 7.00 to 8.00 | COc1ccc(Nc2cncc(-c3c(C)noc3C)n2)cc1 [compound 636, 6-(3,5-dimethyl-1,2-oxazol-4-yl)-N-(4-methoxyphenyl)pyrazin-2-amine] | – |
| 158 to 159 °C | 7.00 to 8.00 | COc1ccc(Nc2cncc(-c3c(C)noc3C)n2)cc1F [compound 637, 6-(3,5-dimethyl-1,2-oxazol-4-yl)-N-(3-fluoro-4-methoxyphenyl)pyrazin-2-amine] | – |
| 173 to 174 °C | 5.52 to 7.00 | COc1ccc(Nc2cncc(-c3c(C)noc3C)n2)cn1 [compound 638, 6-(3,5-dimethyl-1,2-oxazol-4-yl)-N-(6-methoxypyridin-3-yl)pyrazin-2-amine] | – |
| 185 to 186 °C | 5.52 to 7.00 | Cc1noc(C)c1-c1cncc(Nc2ccc3c(c2)OCO3)n1 [compound 639, N-(1,3-benzodioxol-5-yl)-6-(3,5-dimethyl-1,2-oxazol-4-yl)pyrazin-2-amine] | – |
| 176 to 178 °C | 5.52 to 7.00 | Cc1nc2ccc(F)cn2c1-c1cc(C#N)cc(Nc2ccccc2)n1 [compound 646, 2-(6-fluoro-2-methylimidazo[1,2-a]pyridin-3-yl)-6-(phenylamino)pyridine-4-carbonitrile] | – |
| 148 to 151 °C | 7.00 to 8.00 | Cc1nc2ccc(F)cn2c1-c1cc(C#N)cc(Nc2ccc(Cl)cc2)n1 [compound 647, 2-[(4-chlorophenyl)amino]-6-(6-fluoro-2-methylimidazo[1,2-a]pyridin-3-yl)pyridine-4-carbonitrile] | – |
| 185 to 188 °C | 8.00 to 9.00 | Cc1ccc(Nc2cc(C#N)cc(-c3c(C)nc4ccc(F)cn34)n2)cc1 [compound 648, 2-(6-fluoro-2-methylimidazo[1,2-a]pyridin-3-yl)-6-[(4-methylphenyl)amino}pyridine-4-carbonitrile] | – |
| 190 to 192 °C | 8.00 to 9.00 | COc1ccc(Nc2cc(C#N)cc(-c3c(C)nc4ccc(F)cn34)n2)cc1 [compound 649, 2-(6-fluoro-2-methylimidazo[1,2-a]pyridin-3-yl)-6-[(4-methoxyphenyl)amino}pyridine-4-carbonitrile] | – |
| 247 to 250 °C | 5.52 to 7.00 | COc1cccc(Nc2cc(C#N)cc(-c3c(C)nc4ccc(F)cn34)n2)c1 [compound 650, 2-(6-fluoro-2-methylimidazo[1,2-a]pyridin-3-yl)-6-[(3-methoxyphenyl)amino}pyridine-4-carbonitrile] | – |

| SMILES | melting point | pEC50 [1, 2] | pEC50 ([1]; read-out: ELISA EC50 value for Bmi-1 protein, Table 1, Bmi-1 sandwich ELISA) |
| --- | --- | --- | --- |
| Cc1nc2ccc(F)cn2c1-c1cncc(Nc2ccccc2)n1 [compound 590, 6-(6-fluoro-2-methylimidazo[1,2-a]pyridin-3-yl)-N-phenylpyrazin-2-amine] | 216 to 218 °C | – | 7.00 to 8.00 |
